Reference: patent publication EP0275998A2, “Pharmaceutical preparation for treatment of hyperacidity in body fluids” (priority 1987, dated 1988)

Tests used:
[1] = assay type: in vivo, cats
Experimental: In vivo use of preparations of the invention as antiacidotic agents. […] The recovery of the pH to the normal value follows roughly an exponential course with a time constant of 1-3 minutes. […] Results are given in the appended Figure II.

[2] = Plasma concentration of various components after i.v. administration of NMG; assay type: in vivo; settings: cat
[3] = Titration of rat gastric juice with antacid solutions; assay type: physicochemical; settings: aqueous solutions: sodium bicarbonate 150 mM, NMG 150 mM, NMGP 20 mg/cc
Text: Results are given in the appended Figure III.

CNC[C@H](O)[C@@H](O)[C@H](O)[C@H](O)CO [NMG, 1-deoxy-1-(methylamino)-D-glucitol]
urine pH ([1]; artificially ventilated cats, 1cc/Kg of 300 mM): Parallel increase | partial pressure of CO₂ (P CO2) ([1]; artificially ventilated cats, 1cc/Kg of 300 mM isotonic solution): clear decrease | time constant of recovery of the pH to the normal value ([1]; artificially ventilated cats, 1cc/Kg of 300 mM, roughly exponential course): 1-3 minutes | blood pH ([1]; artificially ventilated cats, rapid (about 15 sec.) administration of 1cc/Kg of 300 mM isotonic solution, immediate elevation from about 7.4): ~7.9 | effect on respiration ([1]; in vivo): no significant effect | effects in the vein through which the solution was administered ([1]; in vivo, iv): No gross deleterious effects | Plasma concentration Potassium ([2]; 1 min. after i.v. NMG 0.3 mmol/kg (before: 4.2)): 4200 µM | Plasma concentration Urea ([2]; 1 min. after i.v. NMG 0.3 mmol/kg (before: 7)): 6900 µM | Plasma concentration Chloride ([2]; 1 min. after i.v. NMG 0.3 mmol/kg (before: 113)): 112000 µM | Plasma concentration Sodium ([2]; 1 min. after i.v. NMG 0.3 mmol/kg (before: 142)): 145000 µM | Plasma concentration Potassium ([2]; 30 min. after i.v. NMG 0.3 mmol/kg (before: 4.2)): 4200 µM | Plasma concentration Urea ([2]; 30 min. after i.v. NMG 0.3 mmol/kg (before: 7)): 6800 µM | Plasma concentration Chloride ([2]; 30 min. after i.v. NMG 0.3 mmol/kg (before: 113)): 113000 µM | Plasma concentration Sodium ([2]; 30 min. after i.v. NMG 0.3 mmol/kg (before: 142)): 144000 µM | Plasma concentration Potassium ([2]; 120 min. after i.v. NMG 0.3 mmol/kg (before: 4.2)): 4200 µM | Plasma concentration Urea ([2]; 120 min. after i.v. NMG 0.3 mmol/kg (before: 7)): 6600 µM | Plasma concentration Chloride ([2]; 120 min. after i.v. NMG 0.3 mmol/kg (before: 113)): 116000 µM | Plasma concentration Sodium ([2]; 120 min. after i.v. NMG 0.3 mmol/kg (before: 142)): 147000 µM | antacid potency in titration of gastric juice [3]: more potent than sodium bicarbonate
